# Data: patent US11046699B2, “Pyrazolo-pyrimidin-amino-cycloalkyl compounds and their therapeutic uses” (RAPT THERAPEUTICS, INC., priority 2018, dated 2021)
# pIC50: −log10 of the molar value.
# Biological target: GCN2 (Homo sapiens, UniProt Q9P2K8)
# Assay: GCN2 enzymatic endpoint assay: phosphorylation of GFP-eIF2α measured by TR-FRET (Lanthascreen)
# Assay type: biochemical
# Details: tested as described in Example 77; compound and/or hydrochloride, dihydrochloride or trifluoroacetic acid salt; read-out: IC 50 Activity
# How it was run: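 Reaction started with 2 μM ATP and 80 nM GFP-labelled eIF2α substrate at room temperature, stopped with EDTA after 90 minutes. Phospho-eIF2α detected by terbium-labelled antibody TR-FRET; activity taken as 520 nm (fluorescein) to 495 nm (terbium) emission ratio.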
# Sequence of GCN2 (Q9P2K8 whole entry): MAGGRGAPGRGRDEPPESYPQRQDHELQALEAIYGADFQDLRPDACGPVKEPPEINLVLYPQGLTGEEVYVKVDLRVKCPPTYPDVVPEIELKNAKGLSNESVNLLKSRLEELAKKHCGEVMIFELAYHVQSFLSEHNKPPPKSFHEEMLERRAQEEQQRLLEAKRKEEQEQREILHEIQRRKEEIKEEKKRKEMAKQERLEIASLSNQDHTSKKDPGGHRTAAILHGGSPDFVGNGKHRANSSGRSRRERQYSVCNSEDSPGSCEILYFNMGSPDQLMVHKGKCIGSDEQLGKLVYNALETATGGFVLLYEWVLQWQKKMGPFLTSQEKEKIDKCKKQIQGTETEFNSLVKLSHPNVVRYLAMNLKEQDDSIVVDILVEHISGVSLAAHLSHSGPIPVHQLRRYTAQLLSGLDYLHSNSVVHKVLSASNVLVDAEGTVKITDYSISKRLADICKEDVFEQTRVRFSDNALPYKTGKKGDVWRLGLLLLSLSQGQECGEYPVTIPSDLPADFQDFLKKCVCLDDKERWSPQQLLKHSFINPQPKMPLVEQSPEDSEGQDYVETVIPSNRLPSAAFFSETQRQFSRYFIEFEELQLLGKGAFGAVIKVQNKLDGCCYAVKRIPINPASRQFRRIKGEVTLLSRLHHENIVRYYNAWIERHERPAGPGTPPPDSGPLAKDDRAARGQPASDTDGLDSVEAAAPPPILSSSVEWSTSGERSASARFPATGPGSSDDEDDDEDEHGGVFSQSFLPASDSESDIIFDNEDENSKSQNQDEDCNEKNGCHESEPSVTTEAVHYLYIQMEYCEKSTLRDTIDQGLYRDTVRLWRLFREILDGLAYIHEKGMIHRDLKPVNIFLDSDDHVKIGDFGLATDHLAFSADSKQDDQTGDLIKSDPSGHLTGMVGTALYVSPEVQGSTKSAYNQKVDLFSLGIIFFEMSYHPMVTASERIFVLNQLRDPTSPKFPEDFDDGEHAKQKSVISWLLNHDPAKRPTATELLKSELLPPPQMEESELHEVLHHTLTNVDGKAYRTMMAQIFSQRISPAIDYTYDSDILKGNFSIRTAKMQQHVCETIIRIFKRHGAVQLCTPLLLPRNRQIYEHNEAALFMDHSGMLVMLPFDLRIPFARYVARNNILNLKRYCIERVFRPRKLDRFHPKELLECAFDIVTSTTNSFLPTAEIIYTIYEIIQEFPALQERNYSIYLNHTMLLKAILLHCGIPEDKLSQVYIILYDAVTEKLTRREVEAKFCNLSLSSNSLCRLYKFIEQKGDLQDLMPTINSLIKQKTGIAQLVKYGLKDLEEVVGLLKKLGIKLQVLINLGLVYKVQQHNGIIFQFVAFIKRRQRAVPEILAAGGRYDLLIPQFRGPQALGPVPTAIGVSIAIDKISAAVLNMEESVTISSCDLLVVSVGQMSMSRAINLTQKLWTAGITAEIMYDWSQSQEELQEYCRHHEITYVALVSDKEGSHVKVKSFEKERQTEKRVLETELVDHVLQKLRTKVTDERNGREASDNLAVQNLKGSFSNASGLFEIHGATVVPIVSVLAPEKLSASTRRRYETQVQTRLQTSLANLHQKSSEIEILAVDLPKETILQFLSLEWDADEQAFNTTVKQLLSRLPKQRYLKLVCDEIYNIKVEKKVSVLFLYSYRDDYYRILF
row,pIC50,SMILES
1,6.70 to 7.60,"CNC(=O)[C@]1(C)CC[C@@H](Nc2ncc3c(Br)nn(-c4ccc(-c5nnc(C)o5)c(CCN)c4)c3n2)C1 [(1R,3R)-3-[[1-[3-(2-aminoethyl)-4-(5-methyl-1,3,4-oxadiazol-2-yl)phenyl]-3-bromopyrazolo[3,4-d]pyrimidin-6-yl]amino]-N,1-dimethyl-cyclopentane-carboxamide]"
2,6.70 to 7.60,"CNC(=O)[C@]1(C)CC[C@@H](Nc2ncc3c(Br)nn(-c4ccc(-c5nnc(C)s5)c(CCN)c4)c3n2)C1 [(1R,3R)-3-[[1-[3-(2-aminoethyl)-4-(5-methyl-1,3,4-thiadiazol-2-yl)phenyl]-3-bromo-pyrazolo[3,4-d]pyrimidin-6-yl]amino]-N,1-dimethyl-cyclopentane-carboxamide]"
3,6.70 to 7.60,"CNC(=O)[C@]1(C)CC[C@@H](Nc2ncc3c(Br)nn(-c4ccc(F)c(CCN)c4)c3n2)C1 [(1R,3R)-3-[[1-[3-(2-aminoethyl)-4-fluoro-phenyl]-3-bromo-pyrazolo[3,4-d]pyrimidin-6-yl]amino]-N,1-dimethyl-cyclopentane-carboxamide]"
4,6.70 to 7.60,"CNC(=O)[C@]1(C)CC[C@@H](Nc2ncc3c(Br)nn(-c4ccc(-c5cccnc5)c(CN)c4)c3n2)C1 [(1R,3R)-3-[[1-[3-(aminomethyl)-4-(3-pyridyl)phenyl]-3-bromo-pyrazolo[3,4-d]pyrimidin-6-yl]amino]-N,1-dimethyl-cyclopentane-carboxamide]"
5,6.70 to 7.60,"CNC(=O)[C@]1(C)CC[C@@H](Nc2ncc3c(Br)nn(-c4cc(CN)cc(C(F)(F)F)c4)c3n2)C1 [(1R,3R)-3-[[1-[3-(aminomethyl)-5-(trifluoromethyl)phenyl]-3-bromo-pyrazolo[3,4-d]pyrimidin-6-yl]amino]-N,1-dimethyl-cyclopentanecarboxamide; 2,2,2-trifluoroacetic acid]"
6,6.70 to 7.60,"CNC(=O)[C@]1(C)CC[C@@H](Nc2ncc3c(Br)nn(-c4ccc(-c5ncco5)c(OCC5CNC5)c4)c3n2)C1 [(1R,3R)-3-[[1-[3-(azetidin-3-ylmethoxy)-4-oxazol-2-yl-phenyl]-3-bromo-pyrazolo [3,4-d]pyrimidin-6-yl]amino]-N,1-dimethyl-cyclopentanecarboxamide]"
7,6.70 to 7.60,"CNC(=O)[C@]1(CC(F)F)CC[C@@H](Nc2ncc3c(Br)nn(-c4cc(C#N)cc(OCC5CNC5)c4)c3n2)C1 [(1R,3R)-3-[[1-[3-(azetidin-3-ylmethoxy)-5-cyano-phenyl]-3-bromo-pyrazolo[3,4-d]pyrimidin-6-yl]amino]-1-(2,2-difluoroethyl)-N-methyl-cyclopentanecarboxamide]"
8,6.70 to 7.60,"CNC(=O)[C@]1(C)CC[C@@H](Nc2ncc3c(Br)nn(-c4cc(C#N)cc(OC5CNC5)c4)c3n2)C1 [(1R,3R)-3-[[1-[3-(azetidin-3-yloxy)-5-cyano-phenyl]-3-bromo-pyrazolo[3,4-d]pyrimidin-6-yl]amino]-N,1-dimethyl-cyclopentanecarboxamide]"
9,6.70 to 7.60,"CNC(=O)[C@]1(C)CC[C@@H](Nc2ncc3c(Br)nn(-c4ccc(-c5ncco5)c([C@H](C)CN)c4)c3n2)C1 [(1R,3R)-3-[[1-[3-[(1S)-2-amino-1-methyl-ethyl]-4-oxazol-2-yl-phenyl]-3-bromo-pyrazolo[3,4-d]pyrimidin-6-yl]amino]-N,1-dimethyl-cyclopentanecarboxamide]"
10,> 7.60,"CNC(=O)[C@]1(C)CC[C@@H](Nc2ncc3c(Br)nn(-c4ccc(-c5nnc(C(C)(C)N)o5)c(C#N)c4)c3n2)C1 [(1R,3R)-3-[[1-[4-[5-(1-amino-1-methyl-ethyl)-1,3,4-oxadiazol-2-yl]-3-cyano-phenyl]-3-bromo-pyrazolo[3,4-d]pyrimidin-6-yl]amino]-N,1-dimethyl-cyclopentanecarboxamide]"
11,> 7.60,"CNC(=O)[C@]1(C)CC[C@@H](Nc2ncc3c(Br)nn(-c4ccc(-c5nnc(C(C)(C)N)s5)c(F)c4)c3n2)C1 [(1R,3R)-3-[[1-[4-[5-(1-amino-1-methyl-ethyl)-1,3,4-thiadiazol-2-yl]-3-fluoro-phenyl]-3-bromo-pyrazolo[3,4-d]pyrimidin-6-yl]amino]-N,1-dimethyl-cyclopentanecarboxamide]"
12,6.70 to 7.60,"CNC(=O)[C@]1(C)CC[C@@H](Nc2ncc3c(Br)nn(-c4ccc(-c5nnc(C(C)N)s5)cc4)c3n2)C1 (stereo partly drawn) [(1R,3R)-3-[[1-[4-[5-(1-aminoethyl)-1,3,4-thiadiazol-2-yl]phenyl]-3-bromo-pyrazolo [3,4-d]pyrimidin-6-yl]amino]-N,1-dimethyl-cyclopentanecarboxamide]"
13,6.70 to 7.60,"CNC(=O)[C@]1(C)CC[C@@H](Nc2ncc3c(Br)nn(-c4ccc(-c5nnc(CN)s5)cc4)c3n2)C1 [(1R,3R)-3-[[1-[4-[5-(aminomethyl)-1,3,4-thiadiazol-2-yl]phenyl]-3-bromo-pyrazolo [3,4-d]pyrimidin-6-yl]amino]-N,1-dimethyl-cyclopentanecarboxamide]"

# More lines, now with the values behind:
row,SMILES,pIC50
1,"Cc1nnc(-c2ccc(-n3nc(Br)c4cnc(N[C@@H]5CC[C@@](C)(C(=O)O)C5)nc43)cc2CCN)s1 [(1R,3R)-3-[[1-[3-(2-aminoethyl)-4-(5-methyl-1,3,4-thiadiazol-2-yl)phenyl]-3-bromo-pyrazolo[3,4-d]pyrimidin-6-yl]amino]-1-methyl-cyclopentanecarboxylic acid]",6.70 to 7.60
2,"CNC(=O)[C@]1(C)CC[C@@H](Nc2ncc3c(Br)nn(-c4ccc(C#N)c(CCN)c4)c3n2)C1 [(1R,3R)-3-[[1-[3-(2-aminoethyl)-4-cyano-phenyl]-3-bromo-pyrazolo[3,4-d]pyrimidin-6-yl]amino]-N,1-dimethyl-cyclopentanecarboxamide]",6.70 to 7.60
3,"CNC(=O)[C@]1(C)CC[C@@H](Nc2ncc3c(Br)nn(-c4ccc(-c5ncco5)c(CCN)c4)c3n2)C1 [(1R,3R)-3-[[1-[3-(2-aminoethyl)-4-oxazol-2-yl-phenyl]-3-bromo-pyrazolo[3,4-d]pyrimidin-6-yl]amino]-N,1-dimethyl-cyclopentanecarboxamide]",6.70 to 7.60
4,"CNC(=O)[C@]1(C)CC[C@@H](Nc2ncc3c(Br)nn(-c4ccc(-c5ncco5)c(NC(=O)CCN)c4)c3n2)C1 [(1R,3R)-3-[[1-[3-(3-aminopropanoyl-amino)-4-oxazol-2-yl-phenyl]-3-bromo-pyrazolo[3,4-d]pyrimidin-6-yl]amino]-N,1-dimethyl-cyclopentane-carboxamide]",> 7.60
5,"CNC(=O)[C@]1(C)CC[C@@H](Nc2ncc3c(Br)nn(-c4ccc5ncc(NC(=O)CCN)cc5c4)c3n2)C1 [(1R,3R)-3-[[1-[3-(3-aminopropanoylamino)-6-quinolyl]-3-bromo-pyrazolo[3,4-d]pyrimidin-6-yl]amino]-N,1-dimethyl-cyclopentanecarboxamide]",> 7.60
6,"CNC(=O)[C@]1(C)CC[C@@H](Nc2ncc3c(Br)nn(-c4ccc(-c5nnc(C)s5)c(CCCN)c4)c3n2)C1 [(1R,3R)-3-[[1-[3-(3-aminopropyl)-4-(5-methyl-1,3,4-thiadiazol-2-yl)phenyl]-3-bromopyrazolo[3,4-d]pyrimidin-6-yl]amino]-N,1-dimethyl-cyclopentanecarboxamide]",6.70 to 7.60
7,"CNC(=O)[C@]1(C)CC[C@@H](Nc2ncc3c(Br)nn(-c4cc(C#N)cc(C5CNC5)c4)c3n2)C1 [(1R,3R)-3-[[1-[3-(azetidin-3-yl)-5-cyano-phenyl]-3-bromo-pyrazolo[3,4-d]pyrimidin-6-yl]amino]-N,1-dimethyl-cyclopentane-carboxamide]",6.70 to 7.60
8,"CNC(=O)[C@]1(C)CC[C@@H](Nc2ncc3c(Br)nn(-c4ccc(-c5nnc(C)s5)c(OCC5CNC5)c4)c3n2)C1 [(1R,3R)-3-[[1-[3-(azetidin-3-ylmethoxy)-4-(5-methyl-1,3,4-thiadiazol-2-yl)phenyl]-3-bromo-pyrazolo[3,4-d]pyrimidin-6-yl]amino]-N,1-dimethyl-cyclopentane-carboxamide]",6.70 to 7.60
9,"CNC(=O)[C@]1(C)CC[C@@H](Nc2ncc3c(Br)nn(-c4cc(C#N)cc(OCC5CNC5)c4)c3n2)C1 [(1R,3R)-3-[[1-[3-(azetidin-3-ylmethoxy)-5-cyano-phenyl]-3-bromo-pyrazolo[3,4-d]pyrimidin-6-yl]amino]-N,1-dimethyl-cyclopentanecarboxamide]",> 7.60
10,"CNC(=O)[C@]1(C)CC[C@@H](Nc2ncc3c(Br)nn(-c4cc(C#N)cc(CCC5CNC5)c4)c3n2)C1 [(1R,3R)-3-[[1-[3-[2-(azetidin-3-yl)ethyl]-5-cyano-phenyl]-3-bromo-pyrazolo[3,4-d]pyrimidin-6-yl]amino]-N,1-dimethyl-cyclopentanecarboxamide]",6.70 to 7.60
11,"C[C@H](N)c1cc(Cl)cc(-n2nc(Br)c3cnc(N[C@@H]4CC[C@@](C)(C(=O)NCC(F)F)C4)nc32)c1 [(1R,3R)-3-[[1-[3-[(1S)-1-aminoethyl]-5-chloro-phenyl]-3-bromo-pyrazolo[3,4-d]pyrimidin-6-yl]amino]-N-(2,2-difluoro-ethyl)-1-methyl-cyclopentanecarboxamide]",6.70 to 7.60
12,"CNC(=O)[C@]1(C)CC[C@@H](Nc2ncc3c(Br)nn(-c4ccc(-c5nnc(C(C)(C)N)o5)c(F)c4)c3n2)C1 [(1R,3R)-3-[[1-[4-[5-(1-amino-1-methyl-ethyl)-1,3,4-oxadiazol-2-yl]-3-fluoro-phenyl]-3-bromo-pyrazolo[3,4-d]pyrimidin-6-yl]amino]-N,1-dimethyl-cyclopentanecarboxamide]",6.70 to 7.60
13,"CNC(=O)[C@]1(C)CC[C@@H](Nc2ncc3c(Br)nn(-c4ccc(-c5nnc(C(C)(C)N)s5)c(C#N)c4)c3n2)C1 [(1R,3R)-3-[[1-[4-[5-(1-amino-1-methyl-ethyl)-1,3,4-thiadiazol-2-yl]-3-cyano-phenyl]-3-bromo-pyrazolo[3,4-d]pyrimidin-6-yl]amino]-N,1-dimethyl-cyclopentanecarboxamide]",6.70 to 7.60
14,"CNC(=O)[C@]1(C)CC[C@@H](Nc2ncc3c(Br)nn(-c4cc(CCN)c5c(c4)CCO5)c3n2)C1 [(1R,3R)-3-[[1-[7-(2-aminoethyl)-2,3-dihydrobenzofuran-5-yl]-3-bromo-pyrazolo [3,4-d]pyrimidin-6-yl]amino]-N,1-dimethyl-cyclopentanecarboxamide]",6.70 to 7.60
